Results from patent US10899764B2, “Imidazo isoindole derivative, preparation method therefor and medical use thereof” (Jiangsu Hengrui Medicine Co., Ltd., priority 2015, dated 2021).
Counter-ions that a name gives are not always drawn. Like-named read-outs stand apart in the source and are kept apart here.

Tests used:
[1] = molecular target: human IDO1 (Homo sapiens (Human), UniProt P14902); test: Inhibition activity on human IDO1 (enzyme assay, absorbance at 480 nm); type: biochemical; conditions: purified recombinant human IDO1, 1 hour at 37° C.; read-out: IC50 for inhibiting the activity of human IDO1
Experimental: Assay for Determining the Inhibition Activity of the Present Compounds on Human IDO1
Human IDO1 activity was tested in vitro by the following method.
This method is used to determine the inhibition effect of the compounds of the present invention on the activity of human IDO1.
The human IDO1 gene was transferred to Pet30a plasmid by gene cloning, and then transferred to competent Escherichia coli Rosseta. The IDO1 gene was scaled-up by culturing in liquid LB (Luria-Bertani) medium [which was prepared per liter according to “Molecular Cloning A Laboratory Manual” (J. Sambrook, D. W. Russell)]). The bacteria were collected and lysed by ultrasonic waves. The purified IDO1 was obtained by eluting from a column.
For testing, 24 μL of enzyme (IDO1) was diluted 100 times with 50 mM KPB to 2400 μL. The concentration of the enzyme solution was 2.6 ng/μL. A 96 well reaction plate (AXYGEN, PCR-96-FLT-C) (hereinafter referred to as the “reaction plate”) was added with the enzyme solution at 24 μL/well. The blank well was added with 24 μL of KPB [Preparation of KPB buffer (50 mM): 6.805 g of KH2PO4 was weighed using an analytical balance, and placed into a 1000 mL beaker, deionized water was added with a measuring cylinder to 900 ml, the pH was adjusted to 6.5 by 1M KOH, then the mixture was introduced into a 1 L measuring cylinder, and water was added to 1 L. It was stored at 4° C.]. Then, 1 μL of a compound or DMSO was added into the corresponding wells in the reaction plate. Preparation of solution A: 200 μL of 500 mM L-sodium ascorbate were added with 1050 μL of KPB, then the mixture was mixed uniformly for 3 seconds at the maximum speed in a turbine mixer. Solution B: 100 μL of 10 mM tryptophan were added with 100 μL of 100,000 unit/mL catalase, 5 μL of 10 mM methylene blue, and 1050 μL of KPB successively, then the mixture was mixed uniformly for 3 seconds at the maximum speed in a turbine mixer. Then, 1200 μL of solution A and 1200 μL of solution B were taken and mixed uniformly for 3 seconds at the maximum speed in a turbine mixer. The mixture was added to the reaction plate at 24 μL/well. The reaction plate was placed in a plate centrifuge and centrifuged for 15 seconds at the maximum speed, so that the reaction liquids converged to the bottom. The reaction mixture was mixed uniformly for 30 seconds on a shaker, and incubated for 1 hour at 37° C. in a constant temperature incubator. In the reaction plate, 30% (W/V) trichloroacetic acid was added at 10 μL/well, then the mixture was incubated for 15 minutes at 65° C. in an incubator. The reaction plate was centrifuged in a centrifuge for 5 minutes at 4700 RPM at room temperature. […] Then, 2% (W/V) 4-(dimethylamino)benzaldehyde/glacial acetic acid solution was added at 40 μL/well, and the mixture was mixed uniformly for 1 minute on a shaker at the maximum speed. After incubation for 2 minutes at room temperature, the absorbance at 480 nm was read on a Synergy HT (BIOTEK) reader.
The inhibition activity of the compounds of the present invention on human IDO1 was tested by the assay described above.

[2] = molecular target: human TDO (Homo sapiens (Human), UniProt P48775); test: Inhibition activity on human TDO (tryptophan 2,3-dioxygenase) (enzyme assay, absorbance at 480 nm); type: biochemical; conditions: read-out: IC50 for inhibiting the activity of human TDO
Experimental: Assay for Determining the Inhibition activity of the Compounds of the Present Invention on Human TDO (tryptophan 2,3-dioxygenase)
Human TDO activity was tested in vitro by the following method.
This method is used to determine the inhibition effect of the compounds of the present invention on the activity of human TDO.
Plasmids constructed with the human TDO gene were transferred to competent Escherichia coli Rosseta. The TDO gene was scaled-up by culturing in liquid LB (Luria-Bertani) medium [which was prepared per liter according to “Molecular Cloning A Laboratory Manual” (J. Sambrook, D. W. Russell)]). The bacteria were collected and lysed by ultrasonic waves. The purified TDO was obtained by eluting from a column.
For testing, 24 μL of enzyme (TDO) was diluted 100 times with 50 mM KPB to 2400 μL. The concentration of the enzyme solution was 2.6 ng/μL. A 96 well reaction plate (AXYGEN, PCR-96-FLT-C) (hereinafter referred to as the “reaction plate”) was added with the enzyme solution at 24 μL/well. The blank well was added with 24 μL of KPB [Preparation of KPB buffer (50 mM): 6.805 g of KH2PO4 was weighed using an analytical balance, and placed into a 1000 mL beaker, deionized water was added with a measuring cylinder to 900 mL, the pH was adjusted to 6.5 by 1M KOH, then the mixture was introduced into a 1 L measuring cylinder, and water was added to 1 L. It was stored at 4° C.]. Then, 1 μL of a compound or DMSO was added into the corresponding wells in the reaction plate. Preparation of solution A: 200 μL of 500 mM L-sodium ascorbate was added with 1050 μL of KPB, then the mixture was mixed uniformly for 3 seconds at the maximum speed in a turbine mixer. Solution B: 100 μL of 10 mM tryptophan was added with 100 μL of 100,000 unit/ml catalase, 5 μL of 10 mM methylene blue, and 1050 μL of KPB successively, then the mixture was mixed uniformly for 3 seconds at the maximum speed in a turbine mixer. Then, 1200 μL of solution A and 1200 μL of solution B were taken and mixed uniformly for 3 seconds at the maximum speed in a turbine mixer. The mixture was added to the reaction plate at 24 μL/well. The reaction plate was placed in a plate centrifuge and centrifuged for 15 seconds at the maximum speed, so that the reaction liquids converged to the bottom. The reaction mixture was mixed uniformly for 30 seconds on a shaker, and incubated for 1 hour at 37° C. in a constant temperature incubator. In the reaction plate, 30% (W/V) trichloroacetic acid was added at 10 μL/well, then the mixture was incubated for 15 minutes at 65° C. in a incubator. The reaction plate was centrifuged in a centrifuge for 5 minutes at 4700 RPM at room temperature. […] Then, 2% (W/V) 4-(dimethylamino)benzaldehyde/glacial acetic acid solution was added at 40 μL/well, then the mixture was mixed uniformly for 1 minute on a shaker at the maximum speed. After incubation for 2 minutes at room temperature, the absorbance at 480 nm was read on a Synergy HT Reader.
The inhibition activity of the compounds of the present invention on human TDO was tested by the assay described above.

Sequence of human IDO1 (P14902 whole entry): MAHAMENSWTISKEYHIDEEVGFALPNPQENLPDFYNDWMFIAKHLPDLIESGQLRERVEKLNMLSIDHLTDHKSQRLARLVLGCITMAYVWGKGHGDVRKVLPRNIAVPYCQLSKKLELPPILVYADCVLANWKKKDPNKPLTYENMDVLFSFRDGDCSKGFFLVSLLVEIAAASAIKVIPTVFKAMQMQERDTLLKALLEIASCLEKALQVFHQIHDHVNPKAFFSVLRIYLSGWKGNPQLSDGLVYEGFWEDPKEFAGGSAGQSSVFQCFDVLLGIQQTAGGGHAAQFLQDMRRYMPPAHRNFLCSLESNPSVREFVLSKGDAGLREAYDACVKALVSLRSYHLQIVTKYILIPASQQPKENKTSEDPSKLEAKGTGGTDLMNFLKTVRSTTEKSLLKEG
Sequence of human TDO (P48775 whole entry): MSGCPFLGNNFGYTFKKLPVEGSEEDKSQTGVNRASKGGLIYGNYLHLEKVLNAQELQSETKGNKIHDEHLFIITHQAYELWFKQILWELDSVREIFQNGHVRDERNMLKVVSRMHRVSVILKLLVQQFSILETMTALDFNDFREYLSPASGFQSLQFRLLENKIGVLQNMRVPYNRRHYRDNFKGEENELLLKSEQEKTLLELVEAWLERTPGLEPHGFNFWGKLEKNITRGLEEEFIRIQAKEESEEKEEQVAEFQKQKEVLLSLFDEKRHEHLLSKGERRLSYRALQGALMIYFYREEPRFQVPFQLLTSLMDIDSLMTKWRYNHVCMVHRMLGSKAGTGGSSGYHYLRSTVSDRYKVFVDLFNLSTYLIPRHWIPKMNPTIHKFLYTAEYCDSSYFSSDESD

SMILES | IC50 [1] | IC50 [2] | IC50 ([2]; purified recombinant human TDO, 1 hour at 37° C.)
Fc1cccc(N2CCC(C3c4c(F)cccc4-c4cncn43)CC2)c1 (stereo not shown) [Example 3, 6-fluoro-5-(1-(3-fluorophenyl)piperidin-4-yl)-5H-imidazo[5,1-a]isoindole trifluoroacetate] | 71.7 nM | 371 nM | –
OCCn1cc(-c2ccc(N3CCC([C@H]4c5c(F)cccc5-c5cncn54)CC3)cc2)cn1 [Example 41, (S)-2-(4-(4-(4-(6-fluoro-5H-imidazo[5,1-a]isoindol-5-yl)piperidin-1-yl)phenyl)-1H-pyrazol-1-yl)ethanol] | 9.22 nM | – | 42 nM
